Measurements taken from US7915198B2, “Aqueous solution of non-colloidal silicic acid and boric acid” (Sabalo, N.V., priority 2002, dated 2011).

How the values were obtained:
Phytophthora infestan = type: in vivo, potato plants (strain Bintje)
Procedure: (§1) Solutions of boric acid in water were prepared containing different concentrations of boric acid: 1%, 0.1%, 0.03%, 0.01%, 0.005%, 0.0003% and 0.0001% (W/V). Sodium silicate (10% Si) was diluted tenfold in water and further 1000 times diluted in the solutions or in water with pH 4.5 after dilution, resulting in a final silicon concentration of 0.0010 wt. % (or 10 μg/ml Si)
(§2) All solutions were filtered on a 0.1μ membrane filter. […] The solutions were used instantaneously. A potato garden was used to test the compounds against infection with Phytophthora infestan: 20 m^2 culture were used for testing and each m^2 contained 6 potato plants (strain Bintje) of two months old. Two times a week plant leaves were sprayed with the different solutions (about 10 liters/are). Four square meters were used as placebo.

[1] = tested on: potato plants (strain Bintje)
Procedure: as §1, §2

## OB(O)O [boric acid]
Phytophthora infestan; 1%, 0.1% and 0.03% boric acid
  antifungal effect: no antifungal effect
Phytophthora infestan; From 0.003% boric acid on
  fungal infection: fungal infection decreased
[1]; 1%, 0.1% and 0.03% boric acid, after 1 week treatment
  toxic reactions (necrotic effects on leaves such as black spots, holes): toxic reactions
[1]; From 0.003% boric acid on
  strength of plant leaves: plant leaves were stronger
